Source: patent publication US7795290B2 (Genentech, Inc., priority 2004, dated 2010)

What was measured:
Experiment in all cases: HTS ATP-utilizing enzyme assay, off-chip mobility-shift (Caliper HTS 250)
Format in all cases: biochemical
Conditions in all cases: kinase named = inhibitory activity/selectivity; test compound 10 μM; active = greater than three-sigma from mean
CDK2 = CDK2 (Homo sapiens, UniProt P24941)
Excerpt: (§1) The following procedures describe the reagent and plate preparation for a HTS of an ATP-utilizing enzyme, such as a protein kinase, run in an off-chip mobility-shift assay format. The following provides an HTS protocol for running a protein kinase HTS screen on a Caliper HTS 250 microfluidics system. The following parameters are dependent on the protein kinase used and can be determined by one skilled in the art as part of a typical assay development process. For example, the peptide substrate used can be identified from the current literature, by screening a peptide library of potential protein kinase substrates, or by other applicable means accepted in the field.
(§2) Assays to determine the kinase inhibitory activity of chemical entities of the present disclosure were performed using a Caliper HTS 250 microfluidics device, Greiner U-bottom assay plates, a Multidrop for transfer of reagents, and Biomek FX (AMNCBM03) software. Initially, 2.4 μL of a 1 mM solution of a test compound in 100% DMSO was added to a well of the Greiner U-bottom plate. A single Greiner U-bottom plate having 24×16 wells could include multiple test compounds. Next, 40 μL of 1.06× Assay Buffer was added to each well of the assay plate. Using the Biomek FX, 10 μL of 0.5 M EDTA was added by the span-8 to wells, indicated as 100% Control and 2.4 μL of 100% DMSO was added by the span-8 to wells, indicated as 0% Control. Using the Multidrop, 10 μL of 2.5× Enzyme Buffer, followed by 10 μL of 2.5× Substrate Buffer was added to each well of the assay plate. The total reaction volume in each well was 25 μL, and the concentration of the test compound was 10 μM. The assay plate was incubated for 2.5 hrs at 20° C. to 22° C. After the incubation period, using the Multidrop, 45 μL of 1.55× Termination Buffer was added to each well of the assay plate to stop the reaction. The inhibition of the ATP-utilizing enzyme, such as a particular protein kinase, was determined by measuring the ratio of the peptide substrate to phosphorylated product for each well of the assay plate using the Caliper HTS 250 system.
(§3) The use of three-sigma statistical limits represents a conservative method for declaring potential hits among targets. The three-sigma activity, as well as the mean population activity, can be different for each target enzyme. This method has an expected false positive rate, from an in-control measurement process, of […].
(§4) Each chemical entity listed in Table 2 was tested for protein kinase inhibitory activity according to the biological assays and definitions of protein kinase inhibitory activity as described herein. For each exemplary compound listed in Table 2, the inhibitory activity for at least one protein kinase according to the biological assays and definitions of protein kinase inhibitory activity as described herein is indicated.

MAPKAPK-2 = MAPKAPK-2 (Homo sapiens, UniProt P49137)
Excerpt: as §1, §2, §3, §4

CHEK2 = CHEK2 (Homo sapiens, UniProt O96017)
Excerpt: as §1, §2, §3, §4

AKT1 = molecular target: T1, AKT1 (Homo sapiens, UniProt P31749)
T1 construct: purchased Upstate 14-276
Method in brief: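 AKT1 activity was measured by off-chip mobility shift (Caliper HTS 250) as the ratio of peptide substrate to phosphorylated product. Test compound was at 10 μM, with 2.5 h incubation at 20–22° C. EDTA wells served as 100% control and DMSO wells as 0%. Hits were called at three-sigma limits.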

GSK-3-α = GSK-3-α (Homo sapiens, UniProt P49840)
Excerpt: as §1, §2, §3, §4

AURORA-A = molecular target: T2, AURORA-A (Homo sapiens, UniProt O14965)
T2 sequence (O14965 1-403): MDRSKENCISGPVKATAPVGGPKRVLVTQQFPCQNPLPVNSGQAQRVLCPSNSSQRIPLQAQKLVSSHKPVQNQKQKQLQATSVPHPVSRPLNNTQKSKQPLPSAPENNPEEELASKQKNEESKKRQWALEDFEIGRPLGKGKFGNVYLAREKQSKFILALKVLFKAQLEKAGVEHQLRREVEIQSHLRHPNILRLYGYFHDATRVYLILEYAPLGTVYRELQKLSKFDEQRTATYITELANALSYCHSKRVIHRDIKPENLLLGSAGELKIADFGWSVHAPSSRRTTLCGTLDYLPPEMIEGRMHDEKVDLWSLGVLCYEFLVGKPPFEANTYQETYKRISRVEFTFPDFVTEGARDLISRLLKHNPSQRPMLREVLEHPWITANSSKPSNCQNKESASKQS
Excerpt: as §1, §2, §3, §4

FLT-3 = molecular target: T3, FLT-3 (Homo sapiens, UniProt P36888)
T3 sequence (P36888 27-993): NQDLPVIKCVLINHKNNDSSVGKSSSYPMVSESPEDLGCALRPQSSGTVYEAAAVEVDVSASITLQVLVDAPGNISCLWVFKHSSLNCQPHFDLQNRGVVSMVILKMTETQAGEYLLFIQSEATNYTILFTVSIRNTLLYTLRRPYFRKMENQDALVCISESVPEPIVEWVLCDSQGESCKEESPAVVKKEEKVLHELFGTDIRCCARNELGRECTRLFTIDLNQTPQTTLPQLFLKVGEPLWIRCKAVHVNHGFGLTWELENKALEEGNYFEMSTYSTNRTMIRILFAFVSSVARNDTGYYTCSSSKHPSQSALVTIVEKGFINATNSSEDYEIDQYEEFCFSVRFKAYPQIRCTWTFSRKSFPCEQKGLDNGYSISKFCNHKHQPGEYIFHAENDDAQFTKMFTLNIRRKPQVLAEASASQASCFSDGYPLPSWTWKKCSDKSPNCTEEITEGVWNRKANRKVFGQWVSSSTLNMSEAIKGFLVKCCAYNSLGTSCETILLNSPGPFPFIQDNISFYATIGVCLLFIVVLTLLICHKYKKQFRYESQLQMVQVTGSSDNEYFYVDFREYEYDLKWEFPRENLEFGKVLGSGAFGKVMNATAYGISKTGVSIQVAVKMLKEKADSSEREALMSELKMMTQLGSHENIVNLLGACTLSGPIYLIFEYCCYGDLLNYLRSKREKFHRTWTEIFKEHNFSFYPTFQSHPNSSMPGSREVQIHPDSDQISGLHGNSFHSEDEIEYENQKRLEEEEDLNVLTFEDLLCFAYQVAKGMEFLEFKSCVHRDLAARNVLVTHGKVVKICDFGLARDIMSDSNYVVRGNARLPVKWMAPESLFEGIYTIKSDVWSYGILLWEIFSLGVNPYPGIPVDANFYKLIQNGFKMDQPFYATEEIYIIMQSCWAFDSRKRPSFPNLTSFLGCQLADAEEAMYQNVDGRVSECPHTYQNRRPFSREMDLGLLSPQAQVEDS
Excerpt: as §1, §2, §3, §4

KIT = KIT (Homo sapiens, UniProt P10721)
Excerpt: as §1, §2, §3, §4

ZAP70 = molecular target: T4, ZAP70 (Homo sapiens, UniProt P43403)
T4 sequence (P43403 1-619): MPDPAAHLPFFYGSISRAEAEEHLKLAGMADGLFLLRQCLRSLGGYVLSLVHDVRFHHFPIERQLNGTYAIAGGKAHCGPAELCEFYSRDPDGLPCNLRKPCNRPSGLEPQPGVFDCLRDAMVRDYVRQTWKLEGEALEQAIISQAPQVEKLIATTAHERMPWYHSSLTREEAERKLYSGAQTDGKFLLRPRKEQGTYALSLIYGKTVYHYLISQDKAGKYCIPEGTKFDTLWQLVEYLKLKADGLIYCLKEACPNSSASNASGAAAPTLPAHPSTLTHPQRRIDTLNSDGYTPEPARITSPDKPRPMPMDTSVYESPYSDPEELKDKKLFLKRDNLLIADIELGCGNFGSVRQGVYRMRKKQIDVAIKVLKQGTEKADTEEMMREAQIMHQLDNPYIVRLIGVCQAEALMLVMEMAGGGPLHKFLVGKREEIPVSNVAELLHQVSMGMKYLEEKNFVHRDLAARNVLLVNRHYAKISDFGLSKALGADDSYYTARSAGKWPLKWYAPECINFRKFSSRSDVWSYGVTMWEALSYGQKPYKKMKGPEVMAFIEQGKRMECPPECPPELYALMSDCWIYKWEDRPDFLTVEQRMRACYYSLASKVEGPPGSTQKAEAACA
Excerpt: as §1, §2, §3, §4

SYK = SYK (Homo sapiens, UniProt P43405)
Excerpt: as §1, §2, §3, §4

DYRK2 = molecular target: T5, DYRK2 (Homo sapiens, UniProt Q92630)
T5 sequence (Q92630 1-601): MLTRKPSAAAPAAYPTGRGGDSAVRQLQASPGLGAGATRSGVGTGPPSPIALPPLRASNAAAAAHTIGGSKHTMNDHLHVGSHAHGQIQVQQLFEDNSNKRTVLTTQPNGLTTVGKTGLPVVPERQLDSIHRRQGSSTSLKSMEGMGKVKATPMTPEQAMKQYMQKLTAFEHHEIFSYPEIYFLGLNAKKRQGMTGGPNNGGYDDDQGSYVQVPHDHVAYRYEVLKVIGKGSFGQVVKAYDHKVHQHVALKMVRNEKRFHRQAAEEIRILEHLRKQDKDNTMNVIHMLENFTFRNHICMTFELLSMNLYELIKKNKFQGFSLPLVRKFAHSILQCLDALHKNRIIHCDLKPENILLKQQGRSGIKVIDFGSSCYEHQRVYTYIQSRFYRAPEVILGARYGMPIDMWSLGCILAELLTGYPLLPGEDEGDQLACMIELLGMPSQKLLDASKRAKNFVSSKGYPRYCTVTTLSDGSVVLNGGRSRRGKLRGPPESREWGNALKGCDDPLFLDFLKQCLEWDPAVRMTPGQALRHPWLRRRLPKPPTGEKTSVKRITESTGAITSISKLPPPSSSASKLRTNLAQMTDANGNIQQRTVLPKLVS
Excerpt: as §1, §2, §3, §4

CDK2/cyclin E = CDK2/cyclin E (Homo sapiens, UniProt P24941)
Excerpt: as §1, §2, §3, §4

INSR = INSR (Homo sapiens, UniProt P06213)
Excerpt: as §1, §2, §3, §4

T1 sequence (P31749 whole entry): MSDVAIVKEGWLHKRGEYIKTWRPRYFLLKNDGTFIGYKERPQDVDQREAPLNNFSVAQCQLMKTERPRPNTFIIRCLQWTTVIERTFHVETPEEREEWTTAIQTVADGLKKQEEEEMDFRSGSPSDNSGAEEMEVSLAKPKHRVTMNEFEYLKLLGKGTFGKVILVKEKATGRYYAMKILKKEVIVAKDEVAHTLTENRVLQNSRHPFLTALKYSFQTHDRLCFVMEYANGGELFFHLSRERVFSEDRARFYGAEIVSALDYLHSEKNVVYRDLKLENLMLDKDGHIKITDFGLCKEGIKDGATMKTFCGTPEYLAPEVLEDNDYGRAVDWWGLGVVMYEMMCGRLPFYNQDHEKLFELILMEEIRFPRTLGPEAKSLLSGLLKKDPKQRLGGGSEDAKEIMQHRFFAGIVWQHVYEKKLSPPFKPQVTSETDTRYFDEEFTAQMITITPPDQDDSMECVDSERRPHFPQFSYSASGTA
Sequence of GSK-3-α (P49840 whole entry): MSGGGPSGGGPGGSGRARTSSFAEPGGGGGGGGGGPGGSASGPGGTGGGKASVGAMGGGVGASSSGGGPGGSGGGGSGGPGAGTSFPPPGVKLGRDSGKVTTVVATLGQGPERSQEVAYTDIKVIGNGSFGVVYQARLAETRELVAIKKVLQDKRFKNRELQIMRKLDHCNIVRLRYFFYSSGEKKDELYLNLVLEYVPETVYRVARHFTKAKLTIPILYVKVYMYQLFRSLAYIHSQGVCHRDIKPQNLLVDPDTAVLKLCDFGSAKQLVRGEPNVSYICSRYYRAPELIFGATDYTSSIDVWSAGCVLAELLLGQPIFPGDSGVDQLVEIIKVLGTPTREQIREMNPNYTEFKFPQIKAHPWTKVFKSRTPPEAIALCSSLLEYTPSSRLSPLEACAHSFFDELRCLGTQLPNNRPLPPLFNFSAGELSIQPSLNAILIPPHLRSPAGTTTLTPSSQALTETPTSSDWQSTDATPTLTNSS
Sequence of CHEK2 (O96017 whole entry): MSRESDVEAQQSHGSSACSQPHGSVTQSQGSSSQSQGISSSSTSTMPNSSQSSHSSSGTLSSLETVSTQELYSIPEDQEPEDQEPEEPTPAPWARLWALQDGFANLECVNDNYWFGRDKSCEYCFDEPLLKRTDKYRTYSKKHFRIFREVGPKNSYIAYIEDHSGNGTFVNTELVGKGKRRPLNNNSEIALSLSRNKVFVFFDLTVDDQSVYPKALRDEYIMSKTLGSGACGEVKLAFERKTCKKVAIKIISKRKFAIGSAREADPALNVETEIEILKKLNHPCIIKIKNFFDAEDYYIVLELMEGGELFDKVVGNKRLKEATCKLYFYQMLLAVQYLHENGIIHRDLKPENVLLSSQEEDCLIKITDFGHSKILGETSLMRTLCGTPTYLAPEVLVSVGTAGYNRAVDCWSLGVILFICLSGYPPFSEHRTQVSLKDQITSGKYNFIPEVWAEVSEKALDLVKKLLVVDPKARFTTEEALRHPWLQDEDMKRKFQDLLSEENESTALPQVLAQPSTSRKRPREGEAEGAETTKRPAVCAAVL
Sequence of KIT (P10721 26-976): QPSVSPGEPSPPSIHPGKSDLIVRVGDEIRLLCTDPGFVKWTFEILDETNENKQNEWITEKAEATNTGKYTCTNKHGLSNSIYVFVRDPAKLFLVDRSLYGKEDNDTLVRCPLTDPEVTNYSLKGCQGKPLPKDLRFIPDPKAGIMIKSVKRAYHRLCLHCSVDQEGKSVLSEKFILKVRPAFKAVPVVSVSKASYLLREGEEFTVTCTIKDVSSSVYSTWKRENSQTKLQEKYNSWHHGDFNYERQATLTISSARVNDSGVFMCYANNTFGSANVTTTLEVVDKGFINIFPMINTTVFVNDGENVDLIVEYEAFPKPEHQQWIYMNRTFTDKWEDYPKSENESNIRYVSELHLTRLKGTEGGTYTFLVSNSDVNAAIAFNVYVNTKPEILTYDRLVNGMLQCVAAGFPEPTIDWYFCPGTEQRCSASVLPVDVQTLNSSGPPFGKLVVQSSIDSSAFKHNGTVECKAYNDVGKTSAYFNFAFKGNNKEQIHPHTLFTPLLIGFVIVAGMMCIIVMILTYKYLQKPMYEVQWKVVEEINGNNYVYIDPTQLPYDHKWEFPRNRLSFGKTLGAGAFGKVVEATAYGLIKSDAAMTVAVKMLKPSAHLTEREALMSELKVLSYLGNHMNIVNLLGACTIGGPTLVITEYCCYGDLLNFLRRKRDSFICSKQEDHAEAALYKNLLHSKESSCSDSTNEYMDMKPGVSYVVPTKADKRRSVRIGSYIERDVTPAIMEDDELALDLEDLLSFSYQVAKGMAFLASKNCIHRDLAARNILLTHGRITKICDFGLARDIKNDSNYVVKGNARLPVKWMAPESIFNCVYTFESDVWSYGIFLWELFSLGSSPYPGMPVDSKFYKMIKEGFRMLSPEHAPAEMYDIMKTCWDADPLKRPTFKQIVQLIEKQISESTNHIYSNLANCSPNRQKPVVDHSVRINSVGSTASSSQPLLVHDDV
Sequence of INSR (P06213 28-1382): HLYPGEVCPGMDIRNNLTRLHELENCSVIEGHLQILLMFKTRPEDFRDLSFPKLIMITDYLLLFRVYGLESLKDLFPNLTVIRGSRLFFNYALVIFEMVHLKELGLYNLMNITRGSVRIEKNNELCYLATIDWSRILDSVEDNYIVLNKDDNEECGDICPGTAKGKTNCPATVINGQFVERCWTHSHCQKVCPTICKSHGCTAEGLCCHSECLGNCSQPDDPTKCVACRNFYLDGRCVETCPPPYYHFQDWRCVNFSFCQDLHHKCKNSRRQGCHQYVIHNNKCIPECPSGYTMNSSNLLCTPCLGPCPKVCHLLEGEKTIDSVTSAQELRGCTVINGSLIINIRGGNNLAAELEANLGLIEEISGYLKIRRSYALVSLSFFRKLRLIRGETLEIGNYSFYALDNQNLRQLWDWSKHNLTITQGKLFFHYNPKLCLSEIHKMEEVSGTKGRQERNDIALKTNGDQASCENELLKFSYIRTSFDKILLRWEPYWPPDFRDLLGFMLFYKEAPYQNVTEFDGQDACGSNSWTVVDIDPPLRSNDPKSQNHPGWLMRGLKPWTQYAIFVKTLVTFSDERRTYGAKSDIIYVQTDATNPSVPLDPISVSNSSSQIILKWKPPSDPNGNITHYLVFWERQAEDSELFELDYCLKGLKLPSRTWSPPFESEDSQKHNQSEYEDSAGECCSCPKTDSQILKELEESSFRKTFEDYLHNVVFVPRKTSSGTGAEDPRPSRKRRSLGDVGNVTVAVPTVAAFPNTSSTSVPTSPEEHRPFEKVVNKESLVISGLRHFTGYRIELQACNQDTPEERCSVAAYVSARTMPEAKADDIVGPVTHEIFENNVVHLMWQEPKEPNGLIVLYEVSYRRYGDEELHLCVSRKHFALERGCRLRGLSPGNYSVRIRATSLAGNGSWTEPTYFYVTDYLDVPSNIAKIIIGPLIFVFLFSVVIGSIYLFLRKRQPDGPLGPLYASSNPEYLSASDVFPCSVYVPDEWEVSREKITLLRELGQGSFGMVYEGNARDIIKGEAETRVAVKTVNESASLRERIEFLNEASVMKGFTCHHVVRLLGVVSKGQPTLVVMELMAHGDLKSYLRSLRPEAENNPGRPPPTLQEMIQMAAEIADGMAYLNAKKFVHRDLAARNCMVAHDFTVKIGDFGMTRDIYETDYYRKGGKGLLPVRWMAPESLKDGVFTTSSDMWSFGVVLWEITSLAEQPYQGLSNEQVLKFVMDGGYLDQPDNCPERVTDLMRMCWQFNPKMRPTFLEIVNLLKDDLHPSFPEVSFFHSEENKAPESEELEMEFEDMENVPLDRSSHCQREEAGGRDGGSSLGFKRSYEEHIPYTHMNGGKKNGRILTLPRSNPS
Sequence of MAPKAPK-2 (P49137 whole entry): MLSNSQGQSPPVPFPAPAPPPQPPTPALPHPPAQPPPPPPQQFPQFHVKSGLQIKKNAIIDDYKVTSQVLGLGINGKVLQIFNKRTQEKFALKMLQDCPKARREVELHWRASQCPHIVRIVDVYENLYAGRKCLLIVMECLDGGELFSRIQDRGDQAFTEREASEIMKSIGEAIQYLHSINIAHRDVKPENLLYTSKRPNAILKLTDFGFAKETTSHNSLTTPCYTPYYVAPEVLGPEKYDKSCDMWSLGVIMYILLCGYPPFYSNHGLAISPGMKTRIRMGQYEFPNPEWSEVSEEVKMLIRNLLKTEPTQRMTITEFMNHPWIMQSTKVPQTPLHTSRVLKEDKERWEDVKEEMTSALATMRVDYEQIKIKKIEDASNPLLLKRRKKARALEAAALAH

## COc1ccc(-c2csc(N(CCCN3CCOCC3)C(=O)c3cc(Cl)sc3Cl)n2)cc1 [2,5-dichloro-N-(4-(4-methoxyphenyl)thiazol-2-yl)-N-(3-morpholinopropyl)thiophene-3-carboxamide]
CDK2
  Activity: CDK2

## COc1ccc(-c2csc(N(CCCN3CCN(C)CC3)C(=O)c3ccco3)n2)cc1 [N-(4-(4-methoxyphenyl)thiazol-2-yl)-N-(3-(4-methylpiperazin-1-yl)propyl)furan-2-carboxamide]
MAPKAPK-2
  Activity: MAPKAPK-2
CHEK2
  Activity: CHEK2
AKT1
  Activity: AKT1

## COc1ccc(OC)c(-c2csc(N(Cc3ccco3)C(=O)CCC(=O)O)n2)c1 [4-((4-(2,5-dimethoxyphenyl)thiazol-2-yl)(furan-2-ylmethyl)amino)-4-oxobutanoic acid]
GSK-3-α
  Activity: GSK-3-α
AURORA-A
  Activity: AURORA-A

## COc1ccc(-c2csc(N(CCCN3CCOCC3)C(=O)c3ccc(C)cc3)n2)cc1 [N-(4-(4-methoxyphenyl)thiazol-2-yl)-4-methyl-N-(3-morpholinopropyl)benzamide]
FLT-3
  Activity: FLT-3

## COc1ccc(-c2csc(N(CCCN3CCOCC3)C(=O)c3ccc([N+](=O)[O-])s3)n2)cc1 [N-(4-(4-methoxyphenyl)thiazol-2-yl)-N-(3-morpholinopropyl)-5-nitrothiophene-2-carboxamide]
FLT-3
  Activity: FLT-3
KIT
  Activity: KIT
ZAP70
  Activity: ZAP70

## CCN(CC)c1ccc(-c2csc(N(CCCN3CCOCC3)C(=O)c3cccs3)n2)cc1 [N-(4-(4-(diethylamino)phenyl)thiazol-2-yl)-N-(3-morpholinopropyl)thiophene-2-carboxamide]
SYK
  Activity: SYK
AKT1
  Activity: AKT1

## CCCCN(C(=O)CCC(=O)O)c1nc(-c2cc(OC)ccc2OC)cs1 [4-(butyl(4-(2,5-dimethoxyphenyl)thiazol-2-yl)amino)-4-oxobutanoic acid]
GSK-3-α
  Activity: GSK-3-α
AURORA-A
  Activity: AURORA-A

## COc1ccc(-c2csc(N(CC(C)C)C(=O)CCC(=O)O)n2)cc1 [4-(isobutyl(4-(4-methoxyphenyl)thiazol-2-yl)amino)-4-oxobutanoic acid]
DYRK2
  Activity: DYRK2
AURORA-A
  Activity: AURORA-A

## COc1ccc(-c2csc(N(CCCN3CCOCC3)C(=O)c3cc(C)n(C)c3C)n2)cc1 [N-(4-(4-methoxyphenyl)thiazol-2-yl)-1,2,5-trimethyl-N-(3-morpholinopropyl)-1H-pyrrole-3-carboxamide]
CDK2/cyclin E
  Activity: CDK2/cyclin E

## O=C(c1cccs1)N(CCCN1CCOCC1)c1nc(-c2cccnc2)cs1 [N-(3-morpholinopropyl)-N-(4-(pyridin-3-yl)thiazol-2-yl)thiophene-2-carboxamide]
CDK2/cyclin E
  Activity: CDK2/cyclin E
AKT1
  Activity: AKT1

## COc1ccc(-c2csc(N(CCCN3CCN(C)CC3)C(=O)c3cccs3)n2)cc1 [N-(4-(4-methoxyphenyl)thiazol-2-yl)-N-(3-(4-methylpiperazin-1-yl)propyl)thiophene-2-carboxamide]
INSR
  Activity: INSR
AKT1
  Activity: AKT1
